The results in this text go back to patent US11331295B2, “High-dose statins for age-related macular degeneration” (MASSACHUSETTS EYE AND EAR INFIRMARY, priority 2015, dated 2022).

Data set [1] concerns patient with AMD (large soft drusen). Kind of data set: Report of initial case: 80 mg atorvastatin daily in a patient with AMD. Format: in vivo, human. How it is done: (§1) A case report and pilot multi-center prospective interventional study were conducted with IRB approval. Inclusion criteria were patients over the age of 50 with diagnosis of AMD and the presence of many large, soft drusen/drusenoid PEDs in both eyes. […] Pseudophakia was not a reason for exclusion, unless accompanied by significant posterior capsular opacity.
An otherwise healthy person with AMD presented deteriorating visual acuity. Their baseline visual acuity was 20/25 with significant distortion; they were already taking Age-Related Eye Disease Study (AREDS) supplementation. […] Spectral domain optical coherence tomography (SD-OCT) confirmed the significant extent of these deposits and pigment epithelial detachments as well as the overlying RPE and photoreceptor architectural distortion (FIG. 2, top row). No subretinal or intraretinal fluid was present. Standard AREDS supplementation was continued. […]

In data set [2] the test system is patients with AMD with many large, soft drusen/drusenoid PEDs. The protocol:
as §1

Another data set has as its system ARPE-19 cells. The experiment in a line: Phagocytosis analysis by flow cytometry (fluorescent carboxylate microspheres). The data set is classed as cell-based, human. The note with it: 6 hours; for percentage of phagocytic ARPE-19 cells: DMSO control 31%; for mean fluorescence intensity of cells: control 340; for percentage of ARPE-19 phagocytic cells / mean fluorescence intensity (phagocytic index): 50 μM statin; for percentage of ARPE-19 phagocytic cells: control 31%; for mean fluorescence intensity (phagocytic index): control 332. The protocol: A flow cytometric assay was used to evaluate cell phagocytosis according to a protocol described by Pranab (Mukherjee et al., 2007 Proc Natl Acad Sci USA 104:13158-63). Briefly, ARPE-19 cells were seeded in 12-well plates and cultured until 90% confluent. […] After incubation, cells were washed with PBS three times to remove any extracellular beads, then trypsinized (0.25% trypsin-EDTA, Gibco, US) for 1 minute, and neutralized with pre-warmed culture medium. The cell suspension was collected and centrifuged (241 g, 5 minutes). The cell pellet was re-suspended in 0.5 ml PBS for each sample. Subsequently, the cells were analyzed for green phagocytized fluorescent beads (excitation wavelength of 441 nm and emission wavelength of 486 nm) by a FACScalibur flow cytometer using the CellQuest 3.0.1 (Becton & Dickinson, Mountain View, Calif., US) and FlowJo 10.0 software. The percent of phagocytic cells present in each group was recorded as well as the mean fluorescence intensity of engulfed particles.
The percentage of phagocytic ARPE-19 cells and the mean fluorescence intensity of engulfed particles per group were measured by flow cytometry 6 hours after treatment.
Vavvas et al., 2016 EBioMedicine 5:198-203). […] The effects of cholesterol crystals and ox-LDL on the phagocytic function of RPE cells were studied because impairment of this function is linked to AMD (Nandrot et al., 2007 Adv Exp Med Biol 801:978-1). ARPE-19 cells were treated with 2 mg/ml cholesterol crystals for 6 hours, or 300 μg/ml oxLDL for 18 hours. The phagocytic function was then assessed by flow cytometry, as described in the methods.
A general note: In flow cytometry, cells or beads pass a laser one at a time.

The test system of a further data set is IL-6. The experiment in a line: IL-6 secretion from ARPE-19 cells (western blot of culture medium). Format: cell-based, human. The protocol:
(§2) ARPE-19 cells were seeded in 6-well plates at a density of 1×10^5 cells/well. […] The membrane was then washed and incubated with secondary antibodies. The membrane was developed with enhanced chemiluminescence. The intensity of protein bands was measured using the software Image Lab 4.1 (Bio-Rad, Hercules, Calif., US).
Cholesterol crystals induce the secretion of the inflammatory cytokines IL-6 and IL-8 in ARPE-19 cells (Hu et al., 2014 Discovery Med. 18(97):7-14). […] The levels of IL-6 and IL-8 were evaluated using western blot or ELISA. As expected, cholesterol crystals increased ARPE-19 secretion of IL-6 and IL-8, 3.2- and 2.5-fold, respectively, compared to control treatment (FIGS. 7A and B). […] Similar to cholesterol crystals, incubation of ARPE-19 with ox-LDL led to a 2.6- and 1.3-fold increase in secreted IL-6 and IL-8, respectively.

The next data set has as its system IL-8. The experiment in a line: IL-8 secretion from ARPE-19 cells (western blot / ELISA). Format: cell-based, human. The protocol: as §2
IL-8 induced by oxLDL was measured by analysis of conditioned media of ARPE-19 cells using an ELISA kit (IL-8, R&D Systems, Minneapolis, Minn., US) according to the manufacturer's instructions.
Cholesterol crystals induce the secretion of the inflammatory cytokines IL-6 and IL-8 in ARPE-19 cells (Hu et al., 2014 Discovery Med. 18(97):7-14). […] The levels of IL-6 and IL-8 were evaluated using western blot or ELISA. As expected, cholesterol crystals increased ARPE-19 secretion of IL-6 and IL-8, 3.2- and 2.5-fold, respectively, compared to control treatment (FIGS. 7A and B). […]. […].

The mark [3] stands for this setting: six months after 80 mg atorvastatin.
Where [4] appears, read: 50 μM atorvastatin, 300 μg/ml ox-LDL 18 hours.
Setting [5] is: 50 μM atorvastatin, cholesterol crystals.

Each structure is given as a SMILES string. Like-named read-outs stand apart in the source and are kept apart here.

With `CC(C)c1c(C(=O)Nc2ccccc2)c(-c2ccccc2)c(-c2ccc(F)cc2)n1CC[C@@H](O)C[C@@H](O)CC(=O)O` [atorvastatin], the “visual acuity improved by” value in data set [1] (person with AMD, six months after 80 mg atorvastatin daily) was 12 letters. Moreover, the “atrophy of the RPE (SD-OCT)” value in data set [1] (setting [3]) is reported as “without accompanying atrophy of the RPE”. Further, the “drusen (fundus examination and SD-OCT)” value in data set [1] (setting [3]) is listed as “complete disappearance of the drusen”. Also, the visual acuity in data set [1] (six months after 80 mg atorvastatin daily, 20/30 before treatment) was 20/20. Further, the “Chol. Reduction” value was −62 +/− 35 in data set [2] (All (n = 23)), 71 +/− 35.9 in data set [2] (Non Responders (n = 13)) and 49 +/− 31.2 in data set [2] (Responders (n = 10)). In addition, the “Last VA (letters)” value in data set [2] (All (n = 23), initial 77.6 +/- 8.3) was 77.7 +/− 8.4 letters; in data set [2] (Non Responders (n = 13), initial 80.2 +/- 6), 77.9 +/− 7.1 letters; in data set [2] (Responders (n = 10), initial 74.2 +/- 9.9), 77.5 +/− 10.3 letters. The “Last Cholesterol” value in data set [2] (All (n = 23), initial 208 +/- 34.9) is recorded as 147 +/− 31; in data set [2] (Non Responders (n = 13), initial 207 +/- 37.4) it was 136 +/− 24.4; in data set [2] (Responders (n = 10), initial 210 +/- 33.4), 161 +/− 34.2. In addition, the entries for the “VA gain (loss)” value in data set [2] (Non Responders (n = 13)) and in data set [2] (Responders (n = 10)) were −2.3 and “+3.3”, respectively. For the same compound, in data set [2] (among 23 patients who completed), the “patients showing near-complete regression of drusen deposits” value was “eight”. Moreover, the “effect on progression of pigmentary changes or of pre-existing atrophy” value in data set [2] (high-dose atorvastatin) is given as “did not appear to have a positive or negative effect”. Also, the “letters lost on average” value in data set [2] (non-responders) was found to be 2.2 letters. For the same compound, the “patients who exited the study (cramps, muscle aches, hair loss)” value in data set [2] (of 26 patients enrolled) is “Three”. Further, the “patients who responded to the treatment (regression of drusen deposits)” value in data set [2] (patients who completed the pilot study) is “Ten of 23”. Further, the “average time to response” value in data set [2] (responders) amounted to 11.7 months. In data set [2] (responders), the “letters gained on average” value is recorded as 3 letters. In addition, the “time to response, range” value in data set [2] (responders) is listed as 3-22 months. In addition, the “percentage of phagocytic ARPE-19 cells” value with ARPE-19 cells (1 μM atorvastatin) is recorded as 35%; in the data set on ARPE-19 cells (25 μM atorvastatin) it was 40%; in the data set with ARPE-19 cells (50 μM atorvastatin) it was 42%; in the data set on ARPE-19 cells (75 μM atorvastatin) it was 46%. The “mean fluorescence intensity of cells” value was found to be 368 with ARPE-19 cells (1 μM atorvastatin), 443 in the data set with ARPE-19 cells (25 μM atorvastatin), 453 in the data set on ARPE-19 cells (50 μM atorvastatin) and 467 in the data set on ARPE-19 cells (75 μM atorvastatin). Further, the “decrease in mean fluorescence intensity induced by ox-LDL” value in the data set with ARPE-19 cells (setting [4]) was “completely reversed”. Moreover, the “decrease in the percentage of phagocytic cells induced by ox-LDL” value with ARPE-19 cells (setting [4]) is given as “completely reversed”. In addition, the “decrease in mean fluorescence intensity induced by cholesterol crystals” value in the data set with ARPE-19 cells (setting [5]) is reported as “completely reversed”. Besides, the “decrease in the percentage of phagocytic cells induced by cholesterol crystals” value with ARPE-19 cells (setting [5]) is listed as “completely reversed”. The “percentage of ARPE-19 phagocytic cells” value in the data set with ARPE-19 cells is 43%. Also, the “levels of IL-6 compared to control” value with IL-6 (0.1 μM atorvastatin pretreatment, cholesterol crystals (3.2-fold alone)) is 1.7 fold; in the data set with IL-6 (0.1 μM atorvastatin pretreatment, ox-LDL (2.6-fold alone)) it was 1.9 fold; in the data set with IL-6 (0.5 μM atorvastatin pretreatment, ox-LDL (2.6-fold alone)), 1.3 fold; in the data set on IL-6 (1 μM atorvastatin pretreatment, cholesterol crystals (3.2-fold alone)), 0.8 fold; in the data set on IL-6 (1 μM atorvastatin pretreatment, ox-LDL (2.6-fold alone)), 1.4 fold. The “levels of IL-8 compared to control” value was determined as 1.8 fold in the data set on IL-8 (0.1 μM atorvastatin pretreatment, cholesterol crystals (2.5-fold alone), western blot); 1.2 fold with IL-8 (0.1 μM atorvastatin pretreatment, ox-LDL (1.3-fold alone), ELISA); 1.6 fold in the data set with IL-8 (0.5 μM atorvastatin pretreatment, cholesterol crystals (2.5-fold alone), western blot); 1.02 fold with IL-8 (0.5 μM atorvastatin pretreatment, ox-LDL (1.3-fold alone), ELISA); 1.1 fold in the data set on IL-8 (1 μM atorvastatin pretreatment, cholesterol crystals (2.5-fold alone), western blot); 0.99 fold in the data set on IL-8 (1 μM atorvastatin pretreatment, ox-LDL (1.3-fold alone), ELISA).

Consider `CCC(C)(C)C(=O)O[C@H]1C[C@@H](C)C=C2C=C[C@H](C)[C@H](CC[C@@H]3C[C@@H](O)CC(=O)O3)[C@H]21` [simvastatin], for which, in the data set with ARPE-19 cells, the “percentage of ARPE-19 phagocytic cells” value was 56% and the “mean fluorescence intensity (phagocytic index)” value came out at 513.

Regarding `CC[C@H](C)C(=O)O[C@H]1C[C@@H](C)C=C2C=C[C@H](C)[C@H](CC[C@@H]3C[C@@H](O)CC(=O)O3)[C@H]21` [lovastatin], in the data set on ARPE-19 cells, the “percentage of ARPE-19 phagocytic cells” value stood at 53% and the “mean fluorescence intensity (phagocytic index)” value amounted to 502.
